Test results from patent US8679478B2, “Methods of lysosomal storage disease therapy” (Duke University, priority 2010, dated 2014).

Experiments:
Format in all cases: in vivo, mouse
GAA-KO mice [1] = experiment: Weight gain, ERT plus clenbuterol; conditions: ERT plus clenbuterol v. ERT alone; male mice; p<0.05 at weeks 1-3
Procedure: (§1) GAA-KO mice were administered four weekly doses of rhGAA (20 mg/kg), and treated with clenbuterol (n=5) or ERT alone (n=5). […] Mean+/−standard deviation are shown. Statistically significant differences indicated (*=p<0.05; **=p<0.01).
The efficacy from gene therapy was increased by β2 agonist stimulation from clenbuterol treatment, and this benefit might be expected to affect ERT in Pompe disease, as well. Therefore, groups of 3 month-old GAA-KO mice were treated with four weekly doses of rhGAA (20 mg/kg), with or without concurrent clenbuterol treatment.

GAA-KO mice [2] = experiment: Rotarod testing, ERT (rhGAA) plus clenbuterol; conditions: rhGAA 20 mg/kg weekly x4 plus clenbuterol v. ERT alone; male mice; p=0.04 at 1 week
Procedure: as §1
(§2) For in vivo analysis of AAV vectors, stocks were administered intravenously (via the retroorbital sinus) in 3 month-old and 15 month-old GAA-KO mice, and to 3 month-old tolerant GAA-KO and DKO mice. Clenbuterol (30 μg/ml) was administered to groups of 3 month-old vector-injected and mock-injected male GAA-KO mice in drinking water for 28 days. At the indicated time points post-injection, tissue samples were obtained and processed as described below. All animal procedures were done in accordance with Duke University Institutional Animal Care and Use Committee-approved guidelines. GAA activity and glycogen content were analyzed essentially as described (Sun et al., Mol. Ther., 2005, 11:889-898; Sun et al., Mol. Ther., 2005, 11: 57-65). Rotarod testing was performed essentially as described (Sun, B. D. et al. 2005). Western blotting of hGAA was performed essentially as described (Amalfitano et al., Proc. Natl. Acad. Sci. USA, 1999, 96: 8861-8866) using the hGAA monoclonal antibody (courtesy of Genzyme Corp., Framingham, Mass.) and the CI-MPR antibody (catalog number GTX28093; Gene Tex, Irvine, Calif.). […]

[3] = system: immune tolerant GAA-KO mice; experiment: Histopathology of brain, glycogen staining; conditions: cerebellum; in comparison with ERT alone
Procedure: Histopathology was performed to examine brain involvement, and glycogen accumulations were detected in the cerebellum with ERT alone. Albuterol and clenbuterol each reduced the glycogen staining in the cerebellum, in comparison with ERT alone.

CI-MPR = experiment: Western blot and densitometry of CI-MPR expression in skeletal muscle and brain; conditions: following clenbuterol treatment
Procedure: Western blot detection of CI-MPR and control proteins, β-actin or glyceraldehydes-3-phosphate dehydrogenase (GAPDH) in the tissues of GAA-KO mice is shown, with molecular weights indicated. Each lane represents an individual mouse. Equivalent quantities of tissue homogenate were loaded for each mouse. […] Mean+/−standard deviation are shown. Statistically significant differences indicated (*=p<0.05; **=p<0.01).
For in vivo analysis of AAV vectors, stocks were administered intravenously (via the retroorbital sinus) in 3 month-old and 15 month-old GAA-KO mice, and to 3 month-old tolerant GAA-KO and DKO mice. Clenbuterol (30 μg/ml) was administered to groups of 3 month-old vector-injected and mock-injected male GAA-KO mice in drinking water for 28 days. At the indicated time points post-injection, tissue samples were obtained and processed as described below. All animal procedures were done in accordance with Duke University Institutional Animal Care and Use Committee-approved guidelines. GAA activity and glycogen content were analyzed essentially as described (Sun et al., Mol. Ther., 2005, 11:889-898; Sun et al., Mol. Ther., 2005, 11: 57-65). Rotarod testing was performed essentially as described (Sun, B. D. et al. 2005). Western blotting of hGAA was performed essentially as described (Amalfitano et al., Proc. Natl. Acad. Sci. USA, 1999, 96: 8861-8866) using the hGAA monoclonal antibody (courtesy of Genzyme Corp., Framingham, Mass.) and the CI-MPR antibody (catalog number GTX28093; Gene Tex, Irvine, Calif.).

[4] = system: immune tolerant GAA-KO mice; experiment: Weight of gastrocnemius, ERT plus β2 agonist; conditions: clenbuterol plus ERT v. ERT alone or albuterol plus ERT
Procedure: GAA-KO mice were administered four weekly doses of rhGAA (20 mg/kg), and treated with medium dose clenbuterol (n=7), albuterol (n=4) or untreated (n=6 or 3). […] Mean+/−standard deviation are shown. P values indicate statistically significant differences (lines).
Two β2 agonists were evaluated in combination with ERT, clenbuterol and albuterol. The dose of clenbuterol was reduced 5-fold from the concentration used in Example 4, to 6 mg/l in drinking water, while albuterol was evaluated at the higher dose (30 mg/l in drinking water). Groups of 3 month-old immune tolerant GAA-KO mice (Raben et al., Human Mol. Genet., 2001, 10:2039-2047) were treated with four weekly doses of rhGAA (20 mg/kg body weight), with or without concurrent β2 agonist treatment.
Mice were sacrificed 7 days after the last injection. Selected tissues were collected for GAA enzyme activity and glycogen content analyses. […] GAA activity and glycogen content analyses, Rotarod testing, and Western blot detection of CI-MPR was performed essentially as described (Koeberl et al., Mol. Genet. Metab., 2011, 103:107-112. Wire hang testing was performed with a 0.5 cm mesh hardware cloth fixed to an 8 by 10 inch frame. Mice were placed on the wire mesh, which was slowly inverted 6 inches over a cage containing paper bedding. The latency, or time until the mouse fell into the cage, was recorded.

GAA-KO mice [5] = experiment: GAA activity in tissues, gene therapy plus clenbuterol
Procedure: FIG. 5A-5B depicts enhanced efficacy from liver-targeted gene therapy plus clenbuterol treatment. The GAA-KO mice were injected with AAV-LSPhGAA (2×10^10 vector particles/mouse) or uninjected (5 per group). Vector-treated mice were treated with AAV-LSPhGAA and clenbuterol or with AAV-LSPhGAA alone. Untreated (mock) GAA-KO mice were used as controls. Mice were euthanized for tissue analysis 4 weeks after vector injection. […] Statistically significant differences indicated (*=p<0.05; **=p<0.01).
as §2, with “2005).” for “2005). Western blotting of hGAA was performed essentially as described (Amalfitano et al., Proc. Natl. Acad. Sci. USA, 1999, 96: 8861-8866) using the hGAA monoclonal antibody (courtesy of Genzyme Corp., Framingham, Mass.) and the CI-MPR antibody (catalog number GTX28093; Gene Tex, Irvine, Calif.).”

CC(C)(C)NCC(O)c1cc(Cl)c(N)c(Cl)c1 (stereo not drawn) [clenbuterol]
weight gain (GAA-KO mice [1]): increased weight gain
Rotarod latency (GAA-KO mice [2]): increased Rotarod latency
glycogen staining (histopathology) [3]: reduced
CI-MPR signal (densitometry of Western blots) (CI-MPR; EDL): increased
CI-MPR signal (densitometry of Western blots) (CI-MPR; cerebellum): increased
CI-MPR signal (densitometry of Western blots) (CI-MPR; cerebrum): increased
weight of the gastrocnemius [4]: increased
GAA activity (GAA-KO mice [5]; heart, vector plus clenbuterol v. vector alone, p=0.03): significantly increased
GAA activity (GAA-KO mice [5]; skeletal muscles and the brain, clenbuterol administration with vector): significantly increased
